How the values were obtained:
[1] = Stability / storage of the nitro colorant in (oxidation) dyeing composition or reducing alkaline medium; type: physicochemical; details: oxidation dye composition with ammonia and sodium bisulphite (Examples 26, 27)

Row | Structure (SMILES) | harmlessness (Harmlessness / toxicity) | stability of the nitro colorant in the liquid composition [1]
1 | Cc1c(N)cc([N+](=O)[O-])c(N)c1C [5,6-dimethyl-3-nitroparaphenylenediamine] | particularly harmless | stable in the liquid composition
2 | Cc1c(NCCN)cc([N+](=O)[O-])c(N)c1C [4-amino-5,6-dimethyl-3-nitro-N-β-aminoethylaniline] | particularly harmless | –
3 | Cc1c(NCCO)cc([N+](=O)[O-])c(N)c1C [4-amino-5,6-dimethyl-3-nitro-N-β-hydroxyethylaniline] | particularly harmless | –
4 | Cc1c(NCC(O)CO)cc([N+](=O)[O-])c(N)c1C (stereo not drawn) [4-amino-5,6-dimethyl-3-nitro-N-β,γ-dihydroxypropylaniline] | particularly harmless | –
5 | Cc1cc(N)c([N+](=O)[O-])c(C)c1N [2,6-dimethyl-3-nitroparaphenylenediamine] | particularly harmless | preserved
6 | CCN(CC)CCNc1cc([N+](=O)[O-])c(N)c(C)c1C [4-amino-5,6-dimethyl-3-nitro-N-(β-diethylaminoethyl)aniline] | particularly harmless | –
7 | CNc1c(C)cc(N)c([N+](=O)[O-])c1C [4-amino-2,6-dimethyl-3-nitro-N-methylaniline] | particularly harmless | –

Source: US4736067A, “New dimethyl derivatives of 3-nitro-4-aminoaniline, process for their preparation and their use for dyeing keratinic fibers” (L'Oreal, priority 1983, dated 1988)
